From PubChem BioAssay AID1963838 (Molecular Pharmacology Branch, DTP, NCI, 2024)
pIC50: −log10 of the molar value.

System: 855422-203-R-J1-PDC complex spheroid viability
Assay: Anticancer human tumor 855422-203-R-J1-PDC patient-derived bladder carcinoma cell line growth inhibition [POLQ]
Settings: for pIC50: curve of first compound; for viability, T/C: stronger effect = lower value
Summary of the method: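 Three-cell-type spheroids modelling solid tumor plus stroma served as the readout system; POL inhibitors were tested individually and in combination, concentration ranges set by clinical Cmax where known.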

[1] = second compound 0.0316 µM, first compound 0.0316 µM
[2] = second compound 0.0316 µM, first compound 0.1 µM
[3] = second compound 0.0316 µM, first compound 0.316 µM
[4] = second compound 0.0316 µM, first compound 1 µM
[5] = second compound 0.0316 µM, first compound 3.16 µM
[6] = second compound 0.0316 µM, first compound 10 µM
[7] = second compound 0.1 µM, first compound 0.0316 µM
[8] = second compound 0.1 µM, first compound 0.1 µM
[9] = second compound 0.1 µM, first compound 0.316 µM
[10] = second compound 0.1 µM, first compound 1 µM
[11] = second compound 0.1 µM, first compound 3.16 µM
[12] = second compound 0.1 µM, first compound 10 µM
[13] = second compound 0.316 µM, first compound 0.0316 µM
[14] = second compound 0.316 µM, first compound 0.1 µM
[15] = second compound 0.316 µM, first compound 0.316 µM
[16] = second compound 0.316 µM, first compound 1 µM
[17] = second compound 0.316 µM, first compound 3.16 µM
[18] = second compound 0.316 µM, first compound 10 µM
[19] = second compound 1 µM, first compound 0.0316 µM
[20] = second compound 1 µM, first compound 0.1 µM
[21] = second compound 1 µM, first compound 0.316 µM
[22] = second compound 1 µM, first compound 1 µM
[23] = second compound 1 µM, first compound 3.16 µM
[24] = second compound 1 µM, first compound 10 µM
[25] = second compound 3.16 µM, first compound 0.0316 µM
[26] = second compound 3.16 µM, first compound 0.1 µM
[27] = second compound 3.16 µM, first compound 0.316 µM
[28] = second compound 3.16 µM, first compound 1 µM
[29] = second compound 3.16 µM, first compound 3.16 µM
[30] = second compound 3.16 µM, first compound 10 µM
[31] = second compound 10 µM, first compound 0.0316 µM
[32] = second compound 10 µM, first compound 0.1 µM
[33] = second compound 10 µM, first compound 0.316 µM
[34] = second compound 10 µM, first compound 1 µM
[35] = second compound 10 µM, first compound 3.16 µM
[36] = second compound 10 µM, first compound 10 µM
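Note: spheroids exposed to compounds for seven days before readout.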

CC1COCCN1c1cc(-c2ccnn2C)c2ccnc(-c3ccn[nH]3)c2n1 (stereo unspecified) + COC1C(OC(N)=O)C(O)C(Oc2ccc3c(O)c(NC(=O)c4ccc(O)c(CC=C(C)C)c4)c(=O)oc3c2C)OC1(C)C
pIC50 (second compound 0.0316 µM): 6.77
pIC50 (second compound 0.1 µM): 6.77
pIC50 (second compound 0.316 µM): 6.75
pIC50 (second compound 1 µM): 6.71
pIC50 (second compound 3.16 µM): 6.72
pIC50 (second compound 10 µM): 6.74
viability, T/C [1]: 107%
viability, T/C [2]: 71.5%
viability, T/C [3]: 24.6%
viability, T/C [4]: 9.79%
viability, T/C [5]: 8.71%
viability, T/C [6]: 8.63%
viability, T/C [7]: 108%
viability, T/C [8]: 73%
viability, T/C [9]: 23.4%
viability, T/C [10]: 11.9%
viability, T/C [11]: 9.78%
viability, T/C [12]: 9.2%
viability, T/C [13]: 104%
viability, T/C [14]: 74.5%
viability, T/C [15]: 24.1%
viability, T/C [16]: 13.5%
viability, T/C [17]: 11.3%
viability, T/C [18]: 6.39%
viability, T/C [19]: 104%
viability, T/C [20]: 85.4%
viability, T/C [21]: 23.1%
viability, T/C [22]: 13.3%
viability, T/C [23]: 8.72%
viability, T/C [24]: 7.58%
viability, T/C [25]: 111%
viability, T/C [26]: 85%
viability, T/C [27]: 22.9%
viability, T/C [28]: 11%
viability, T/C [29]: 6.98%
viability, T/C [30]: 7.28%
viability, T/C [31]: 118%
viability, T/C [32]: 81.5%
viability, T/C [33]: 21.1%
viability, T/C [34]: 10.7%
viability, T/C [35]: 9.81%
viability, T/C [36]: 7.1%

CCc1cc2c(N3CCc4c(cc(Cn5ccnc5)cc4-c4cn(C)nc4C(F)(F)F)C3=O)ccnc2c(OC)n1 + COC1C(OC(N)=O)C(O)C(Oc2ccc3c(O)c(NC(=O)c4ccc(O)c(CC=C(C)C)c4)c(=O)oc3c2C)OC1(C)C
pIC50 (second compound 0.0316 µM): 5.40
pIC50 (second compound 0.1 µM): 5.47
pIC50 (second compound 0.316 µM): 5.56
pIC50 (second compound 1 µM): 5.59
pIC50 (second compound 3.16 µM): 5.69
pIC50 (second compound 10 µM): 5.65
viability, T/C [1]: 83.6%
viability, T/C [2]: 95%
viability, T/C [3]: 83.4%
viability, T/C [4]: 69.5%
viability, T/C [5]: 55.9%
viability, T/C [6]: 34.5%
viability, T/C [7]: 88.2%
viability, T/C [8]: 82.8%
viability, T/C [9]: 84.1%
viability, T/C [10]: 66.8%
viability, T/C [11]: 52.6%
viability, T/C [12]: 28.5%
viability, T/C [13]: 93.3%
viability, T/C [14]: 80.3%
viability, T/C [15]: 93.2%
viability, T/C [16]: 75.1%
viability, T/C [17]: 46.7%
viability, T/C [18]: 31%
viability, T/C [19]: 87.9%
viability, T/C [20]: 76.9%
viability, T/C [21]: 71.2%
viability, T/C [22]: 65.1%
viability, T/C [23]: 46.6%
viability, T/C [24]: 28.6%
viability, T/C [25]: 89.5%
viability, T/C [26]: 90%
viability, T/C [27]: 68.9%
viability, T/C [28]: 67.3%
viability, T/C [29]: 40%
viability, T/C [30]: 28.1%
viability, T/C [31]: 99.3%
viability, T/C [32]: 76%
viability, T/C [33]: 80.3%
viability, T/C [34]: 72.9%
viability, T/C [35]: 39.3%
viability, T/C [36]: 31.9%

COc1cc(C2c3cc4c(cc3C(OC3OC5COC(C)OC5C(O)C3O)C3COC(=O)C23)OCO4)cc(OC)c1O (stereo unspecified) + Nc1ccc(C#CCN(C(=O)Cc2ncc(C(F)(F)F)cc2C(F)(F)F)c2ccc(F)cc2)nn1
pIC50 (second compound 0.0316 µM): 6.28
pIC50 (second compound 0.1 µM): 6.32
pIC50 (second compound 0.316 µM): 6.35
pIC50 (second compound 1 µM): 6.36
pIC50 (second compound 3.16 µM): 6.47
pIC50 (second compound 10 µM): 6.42
viability, T/C [1]: 120%
viability, T/C [2]: 127%
viability, T/C [3]: 78.5%
viability, T/C [4]: 15%
viability, T/C [5]: 10%
viability, T/C [6]: 7.23%
viability, T/C [7]: 108%
viability, T/C [8]: 164%
viability, T/C [9]: 71.5%
viability, T/C [10]: 21%
viability, T/C [11]: 8.67%
viability, T/C [12]: 4.47%
viability, T/C [13]: 94.4%
viability, T/C [14]: 137%
viability, T/C [15]: 66.1%
viability, T/C [16]: 21.8%
viability, T/C [17]: 10.4%
viability, T/C [18]: 4.7%
viability, T/C [19]: 92.2%
viability, T/C [20]: 141%
viability, T/C [21]: 64.8%
viability, T/C [22]: 23.5%
viability, T/C [23]: 10.1%
viability, T/C [24]: 4.86%
viability, T/C [25]: 99.3%
viability, T/C [26]: 135%
viability, T/C [27]: 52%
viability, T/C [28]: 20.5%
viability, T/C [29]: 10.7%
viability, T/C [30]: 4.56%
viability, T/C [31]: 105%
viability, T/C [32]: 114%
viability, T/C [33]: 56.5%
viability, T/C [34]: 19.5%
viability, T/C [35]: 11.1%
viability, T/C [36]: 5.88%
